Assay results: the NIST ThermoML archive (doi:10.1016/j.jct.2006.10.008)
Numbers after ± are expanded uncertainties.

Assays:
[1] = xn = mol fraction of the nth substance listed; settings: 298.15 K, 101 kPa, Liquid
[2] = excess molar enthalpy (molar enthalpy of mixing); xn = mol fraction of the nth substance listed; settings: 298.15 K, 101 kPa, Liquid, Calvet calorimetry

Q: With `ClCCCCCCl` [1,5-dichloropentane] + CCCOC=O as the compound, how does the mass density ([1]; x2 = 0.0753) read?
A: Its mass density is 1084.21 ± 0.49 kg/m3.

Q: What about the mass density ([1]; x2 = 0.1495) of the same compound?
A: Its mass density is 1073.17 ± 0.47 kg/m3.

Q: And the mass density ([1]; x2 = 0.2212)?
A: The mass density was 1062.01 ± 0.44 kg/m3.

Q: And the mass density ([1]; x2 = 0.2884)?
A: Its mass density is 1051.29 ± 0.42 kg/m3.

Q: And the mass density ([1]; x2 = 0.3607)?
A: Its mass density is 1039.4 ± 0.4 kg/m3.

Q: And the mass density ([1]; x2 = 0.4174)?
A: Its mass density is 1029.7 ± 0.38 kg/m3.

Q: What about the mass density ([1]; x2 = 0.4802) of the same compound?
A: The mass density was 1018.63 ± 0.36 kg/m3.

Q: What about the mass density ([1]; x2 = 0.5386) of the same compound?
A: Its mass density is 1008.06 ± 0.34 kg/m3.

Q: And the mass density ([1]; x2 = 0.6024)?
A: Its mass density is 996.11 ± 0.33 kg/m3.

Q: And the mass density ([1]; x2 = 0.6568)?
A: The mass density was 985.57 ± 0.34 kg/m3.

Q: And the mass density ([1]; x2 = 0.7118)?
A: The mass density was 974.66 ± 0.35 kg/m3.

Q: What about the mass density ([1]; x2 = 0.8133) of the same compound?
A: The mass density was 953.48 ± 0.38 kg/m3.

Q: And the mass density ([1]; x2 = 0.8586)?
A: The mass density was 943.64 ± 0.39 kg/m3.

Q: What about the mass density ([1]; x2 = 0.9056) of the same compound?
A: Its mass density is 933.22 ± 0.4 kg/m3.

Q: And the mass density ([1]; x2 = 0.9555)?
A: The mass density was 921.68 ± 0.42 kg/m3.

Q: And the excess molar enthalpy ([2]; x2 = 0.0792)?
A: The excess molar enthalpy was 0.0136 ± 0.000287 kcal/mol.

Q: What about the excess molar enthalpy ([2]; x2 = 0.1664) of the same compound?
A: Its excess molar enthalpy is 0.0219 ± 0.000359 kcal/mol.

Q: What about the excess molar enthalpy ([2]; x2 = 0.2538) of the same compound?
A: Its excess molar enthalpy is 0.0276 ± 0.000406 kcal/mol.

Q: What about the excess molar enthalpy ([2]; x2 = 0.3307) of the same compound?
A: Its excess molar enthalpy is 0.0289 ± 0.000406 kcal/mol.

Q: What about the excess molar enthalpy ([2]; x2 = 0.4063) of the same compound?
A: The excess molar enthalpy was 0.0282 ± 0.000406 kcal/mol.

Q: What about the excess molar enthalpy ([2]; x2 = 0.4789) of the same compound?
A: Its excess molar enthalpy is 0.0251 ± 0.000382 kcal/mol.

Q: And the excess molar enthalpy ([2]; x2 = 0.5175)?
A: Its excess molar enthalpy is 0.022 ± 0.000359 kcal/mol.

Q: What about the excess molar enthalpy ([2]; x2 = 0.5645) of the same compound?
A: Its excess molar enthalpy is 0.0176 ± 0.000335 kcal/mol.

Q: And the excess molar enthalpy ([2]; x2 = 0.6145)?
A: The excess molar enthalpy was 0.0142 ± 0.000287 kcal/mol.

Q: And the excess molar enthalpy ([2]; x2 = 0.6665)?
A: The excess molar enthalpy was 0.00935 ± 0.000263 kcal/mol.

Q: What about the excess molar enthalpy ([2]; x2 = 0.7229) of the same compound?
A: The excess molar enthalpy was 0.00478 ± 0.000215 kcal/mol.

Q: What about the excess molar enthalpy ([2]; x2 = 0.7817) of the same compound?
A: The excess molar enthalpy was 0.0016 ± 0.000191 kcal/mol.

Q: And the excess molar enthalpy ([2]; x2 = 0.8389)?
A: Its excess molar enthalpy is -0.00249 ± 0.000215 kcal/mol.

Q: What about the excess molar enthalpy ([2]; x2 = 0.8948) of the same compound?
A: The excess molar enthalpy was -0.00507 ± 0.000215 kcal/mol.

Q: What about the excess molar enthalpy ([2]; x2 = 0.9503) of the same compound?
A: Its excess molar enthalpy is -0.00287 ± 0.000215 kcal/mol.

Q: Which results are given for `ClCCCCCl` [1,4-dichlorobutane] + CCOC=O?
A: mass density ([1]; x2 = 0.0774): 1120.56 ± 0.56 kg/m3; mass density ([1]; x2 = 0.1549): 1107.96 ± 0.54 kg/m3; mass density ([1]; x2 = 0.229): 1095.35 ± 0.51 kg/m3; mass density ([1]; x2 = 0.2982): 1083.08 ± 0.49 kg/m3; mass density ([1]; x2 = 0.3653): 1070.71 ± 0.46 kg/m3; mass density ([1]; x2 = 0.4302): 1058.33 ± 0.44 kg/m3; mass density ([1]; x2 = 0.4921): 1046.05 ± 0.41 kg/m3; mass density ([1]; x2 = 0.5517): 1033.83 ± 0.39 kg/m3; mass density ([1]; x2 = 0.6131): 1020.82 ± 0.36 kg/m3; mass density ([1]; x2 = 0.6683): 1008.67 ± 0.34 kg/m3; mass density ([1]; x2 = 0.7211): 996.7 ± 0.33 kg/m3; mass density ([1]; x2 = 0.7717): 984.84 ± 0.34 kg/m3; mass density ([1]; x2 = 0.8212): 973.13 ± 0.35 kg/m3; mass density ([1]; x2 = 0.8674): 961.66 ± 0.37 kg/m3; mass density ([1]; x2 = 0.9134): 949.8 ± 0.38 kg/m3; mass density ([1]; x2 = 0.9569): 938.37 ± 0.4 kg/m3; excess molar enthalpy ([2]; x2 = 0.083): 0.0262 ± 0.000406 kcal/mol; excess molar enthalpy ([2]; x2 = 0.1706): 0.042 ± 0.000526 kcal/mol; excess molar enthalpy ([2]; x2 = 0.256): 0.0527 ± 0.000598 kcal/mol; excess molar enthalpy ([2]; x2 = 0.3368): 0.0584 ± 0.000645 kcal/mol; excess molar enthalpy ([2]; x2 = 0.4094): 0.0582 ± 0.000645 kcal/mol; excess molar enthalpy ([2]; x2 = 0.473): 0.055 ± 0.000621 kcal/mol; excess molar enthalpy ([2]; x2 = 0.5279): 0.0505 ± 0.000574 kcal/mol; excess molar enthalpy ([2]; x2 = 0.5977): 0.0395 ± 0.000502 kcal/mol; excess molar enthalpy ([2]; x2 = 0.6452): 0.034 ± 0.000454 kcal/mol; excess molar enthalpy ([2]; x2 = 0.6966): 0.025 ± 0.000382 kcal/mol; excess molar enthalpy ([2]; x2 = 0.7477): 0.0167 ± 0.000311 kcal/mol; excess molar enthalpy ([2]; x2 = 0.803): 0.0108 ± 0.000263 kcal/mol; excess molar enthalpy ([2]; x2 = 0.8543): 0.00633 ± 0.000239 kcal/mol; excess molar enthalpy ([2]; x2 = 0.907): 0.00373 ± 0.000215 kcal/mol; excess molar enthalpy ([2]; x2 = 0.9569): 0.00222 ± 0.000215 kcal/mol
